Assay results as given in PMC6271477, “Effects of Single Amino Acid Substitution on the Biophysical Properties and Biological Activities of an Amphipathic α-Helical Antibacterial Peptide Against Gram-Negative Bacteria” (Molecules, 2014).
Converted amounts (≈) assume the structure as drawn. Read-outs that look alike come from different tables or passages of the source.

Legend:
[1] = system: E. coli DH5α; assay: MIC by broth dilution; format: cell-based; conditions: MH broth, 5 × 10^5 CFU/mL, 24 h at 37 °C
Description: (§1) Minimal inhibitory concentrations (MIC) were determined using a broth dilution method. Briefly, bacteria were grown overnight at 37 °C in Mueller–Hinton (MH) Broth, diluted in the same medium and transferred into 96-well microtiter plates (90 μL/well). Peptides were serially diluted using 0.2% bovine serum albumin containing 0.01% acetic acid and added to the microtiter plates in a volume of 10 μL per well to give a final concentration of 5 × 10^5 CFU/mL. MICs were defined as the lowest peptide concentration that inhibited bacterial growth after incubation for 24 h at 37 °C.

[2] = Tryptophan fluorescence, binding to lipid vesicles; conditions: for Tryptophan fluorescence emission maximum: excitation 280 nm
Description: Upon peptide diffusion into the cytoplasmic membrane, evidence of selective interaction between peptides with bacterial versus mammalian cytoplasmic membrane was illustrated by the binding events of the peptides to anionic or zwitterionic lipid vesicles. […] Lipid/peptide (L/P) ratios were maintained high enough at low peptide concentration (2 μM) in order to mimic the initial steps of peptide-membrane binding. The spectra were recorded as shown in Supplementary Figure S1. […] The significant blue shifts of Δλmax (17 to 23 nm) for all peptides upon exposure to PC/PG vesicles indicated a membrane partition state of Trp in negatively charged vesicles containing 30% anionic lipids (PG).
Unilamellar vesicles were prepared by a standard procedure with either PC/PG (7:3, w/w) or PC/cholesterol (8:1, w/w) as described previously. Briefly, the desired mixtures of lipids were dissolved in a chloroform/methanol mixture (2:1, v/v), dried under nitrogen and then lyophilized for 24 h to remove traces of organic solvent. Dry lipid films were suspended in 10 mM HEPES buffer containing 150 mM NaCl (pH 7.4) by vortex mixing. After five freeze-thawing cycles, the suspension was extruded 15 times through double polycarbonate membranes with 0.1 μm diameter pores on an Avanti mini-extruder apparatus. The lipid concentration was determined by phosphorus analysis as previously reported.
(§2) Fluorescence emission spectra of peptide Trp residues were monitored by a Shimadzu RF-5301 spectrofluorometer. The excitation of wavelength was set as 280 nm and the emission spectra of each peptide, with or without lipid vesicles, were recorded between 300 and 450 nm. Thus three curves were recorded for each peptide, in HEPES buffer or with either PC/PG vesicles or PC/cholesterol vesicles. The blue shift of Trp residues in vesicles were referred to in buffer condition. The final concentrations of peptide and lipid were 2 μM and 100 μM (1/50), respectively.

[3] = Analytical RP-HPLC retention time as a measure of peptide hydrophobicity; format: physicochemical; conditions: RP-HPLC at 25 °C, Zorbax 300 SB-C8 column, linear AB gradient, A 0.1% aqueous TFA, B 0.1% TFA in acetonitrile, 1 mL/min, detection at 210 nm
Description: Among substitutions, the retention times ranged from 32.2 min (peptide V16K) to 40.4 min (peptide V16L), which reflect the pure effects of single amino acid substitutions. Thus, the retention times of peptides reflect the relative hydrophobicity of side chains. Consistent with previous studies, the hydrophobicity of peptide analogs was generally in the following order: Lys < Gly < Ser < Ala < Val < Leu. Glu-substituted peptide was an exception, as it contains a negatively-charged side chain and this should decrease the hydrophobicity of the peptide dramatically.
Peptides were analyzed on a Shimadzu LC-20A HPLC using a Zorbax 300 SB-C8 column (150 ° 4.6 mm i.d., 5 μm particle size, 300 Å pore size) from Agilent Technologies using a linear AB gradient and a flow rate of 1 mL/min, where solvents A and B were as described above. Absorbance signals of peptides were detected at 210 nm.

[4] = system: E. coli Clinical Isolate; format: cell-based
Description: as §1

[5] = system: P. aeruginosa ATCC27853; format: cell-based
Description: as §1

[6] = system: E. coli ATCC25922; format: cell-based
Description: as §1

[7] = system: P. aeruginosa H188; format: cell-based
Description: as §1

[8] = Tryptophan fluorescence in HEPES buffer; format: physicochemical; conditions: peptide 2 μM, excitation 280 nm
Excerpt: Upon peptide diffusion into the cytoplasmic membrane, evidence of selective interaction between peptides with bacterial versus mammalian cytoplasmic membrane was illustrated by the binding events of the peptides to anionic or zwitterionic lipid vesicles. The repositioning of the tryptophan indole group in an environment of reduced polarity upon membrane binding results in a blue shift in the fluorescence […] maximum coupled with an enhancement of emission intensity. Lipid/peptide (L/P) ratios were maintained high enough at low peptide concentration (2 μM) in order to mimic the initial steps of peptide-membrane binding. The spectra were recorded as shown in Supplementary Figure S1. […] The significant blue shifts of Δλmax (17 to 23 nm) for all peptides upon exposure to PC/PG vesicles indicated a membrane partition state of Trp in negatively charged vesicles containing 30% anionic lipids (PG).
as §2

[9] = PC/PG (7:3, w/w) vesicles versus HEPES buffer, lipid:peptide 50:1, peptide 2 μM
[10] = PC/PG (7:3, w/w) vesicles, lipid and peptide in a molar ratio of 50:1, peptide 2 μM, lipid 100 μM
[11] = PC/cholesterol (8:1, w/w) vesicles versus HEPES buffer, peptide 2 μM, lipid 100 μM
[12] = PC/cholesterol (8:1, w/w) vesicles, peptide 2 μM, lipid 100 μM

Molecule: Ac-KWKSFLKTFKSAKKTKLHTALKAISS-NH2 [Peptide V16K]
- MIC [1]: 16 µg/mL
- Blue shift in emission maximum [2, 9]: 21 nm
- Tryptophan fluorescence emission maximum [2, 10]: 329 nm
- Blue shift in emission maximum [2, 11]: 1 nm
- Tryptophan fluorescence emission maximum [2, 12]: 349 nm
- tR, retention time during RP-HPLC (relative hydrophobicity) [3]: 32.2 min
- MIC ([4]; Clinical Isolate, 24 h): 8 µg/mL
- MIC ([5]; ATCC27853, 24 h): 32 µg/mL
- MIC ([6]; ATCC25922, 24 h): 32 µg/mL
- MIC ([7]; H188, 24 h): 16 µg/mL
- Tryptophan fluorescence emission maximum [8]: 350 nm

Molecule: CC[C@H](C)[C@H](NC(=O)[C@H](C)NC(=O)[C@H](CCCCN)NC(=O)[C@H](CC(C)C)NC(=O)[C@H](C)NC(=O)[C@@H](NC(=O)[C@H](Cc1cnc[nH]1)NC(=O)[C@H](CC(C)C)NC(=O)[C@@H](NC(=O)[C@@H](NC(=O)[C@H](CCCCN)NC(=O)[C@H](CCCCN)NC(=O)[C@H](C)NC(=O)[C@H](CO)NC(=O)[C@H](CCCCN)NC(=O)[C@H](Cc1ccccc1)NC(=O)[C@@H](NC(=O)[C@H](CCCCN)NC(=O)[C@H](CC(C)C)NC(=O)[C@H](Cc1ccccc1)NC(=O)[C@H](CO)NC(=O)[C@H](CCCCN)NC(=O)[C@H](Cc1c[nH]c2ccccc12)NC(=O)[C@H](CCCCN)NC(C)=O)[C@@H](C)O)[C@@H](C)O)C(C)C)[C@@H](C)O)C(=O)N[C@@H](CO)C(=O)N[C@@H](CO)C(N)=O [P]
- MIC [1]: 2 µg/mL (≈ 0.669 µM)
- Blue shift in emission maximum [2, 9]: 22 nm
- Tryptophan fluorescence emission maximum [2, 10]: 328 nm
- Blue shift in emission maximum [2, 11]: 1 nm
- Tryptophan fluorescence emission maximum [2, 12]: 349 nm
- tR, retention time during RP-HPLC (relative hydrophobicity) [3]: 38.2 min
- MIC ([4]; E. coli Clinical Isolate, MH broth, 5 × 10^5 CFU/mL, 24 h at 37 °C): 1 µg/mL (≈ 0.334 µM)
- MIC ([5]; P. aeruginosa ATCC27853, MH broth, 5 × 10^5 CFU/mL, 24 h at 37 °C): 4 µg/mL (≈ 1.34 µM)
- MIC ([6]; E. coli ATCC25922, MH broth, 5 × 10^5 CFU/mL, 24 h at 37 °C): 1 µg/mL (≈ 0.334 µM)
- MIC ([7]; P. aeruginosa H188, MH broth, 5 × 10^5 CFU/mL, 24 h at 37 °C): 4 µg/mL (≈ 1.34 µM)
- Tryptophan fluorescence emission maximum [8]: 350 nm
